Read-outs that look alike come from different tables or passages of the source.
Experiments:
Format in all cases: cell-based
[1] = tested on: Proteus mirabilis (PMI) isolates; test: microbe, parasite or virus in culture; details: for MIC ATB in combination: AF1 @ 4 μg/mL; for MIC: Proteus mirabilis, ATB alone, read-out: MIC
How it was run: (§1)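 Log-phase isolates at final 5·10^5 CFU/mL in cation-adjusted Mueller-Hinton broth, incubated 16-20 h at 35° C in ambient air. MIC read visually as lowest concentration preventing growth, for compound alone and for antibacterial at each compound concentration.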

[2] = tested on: Citrobacter freundii (CFR) isolates; test: MIC of compounds alone and combined with antibacterials, broth microdilution (CLSI); details: for MIC: Citrobacter freundii
How it was run: as §1

[3] = tested on: Citrobacter koseri (CKR) isolates; test: as above; details: for MIC ATB in combination: AF1 @ 4 μg/mL; for MIC: Citrobacter koseri, ATB alone
How it was run: as §1

[4] = tested on: Enterobacter aerogenes (EAE) isolates; test: as above; details: for MIC ATB in combination: AF1 @ 4 μg/mL; for MIC: Klebsiella aerogenes
How it was run: as §1

[5] = tested on: Escherichia coli (ECO) isolates; test: as above; details: AF1 @ 4 μg/mL
How it was run: as §1

CO/N=C(\C(=O)N[C@@H]1C(=O)N2C(C(=O)O)=C(COC(N)=O)CS[C@H]12)c1ccco1 [FUR, Cefuroxime]
16 µg/mL: MIC ([1]; strain PMI UFR82 (CMY-2)) | MIC ATB in combination ([2]; CFR UFR146, AF1 @ 4 μg/mL)
2 µg/mL: MIC ATB in combination ([1]; PMI UFR121) | MIC ATB in combination ([2]; strain CFR UFR254, antibacterial combined with AF1 @ 4 μg/mL) | MIC ATB in combination ([4]; EAE UFR201) | MIC ATB in combination ([5]; ECO 190549) | MIC ATB in combination ([5]; ECO 200159) | MIC ATB in combination ([5]; ECO 200259)
8 µg/mL: MIC ([1]; strain PMI UFR130 (CMY-2)) | MIC ATB in combination ([2]; CFR UFR10, AF1 @ 4 μg/mL) | MIC ATB in combination ([2]; CFR UFR248, AF1 @ 4 μg/mL) | MIC ATB in combination ([2]; CFR UFR249, AF1 @ 4 μg/mL) | MIC ATB in combination ([2]; CFR UFR250, AF1 @ 4 μg/mL) | MIC ATB in combination ([4]; EAE UFR199) | MIC ATB in combination ([4]; EAE UFR213) | MIC ATB in combination ([5]; ECO 190457)
1 µg/mL: MIC ATB in combination ([1]; PMI UFR120) | MIC ATB in combination ([1]; PMI UFR122) | MIC ATB in combination ([1]; PMI UFR123) | MIC ATB in combination ([1]; PMI UFR124) | MIC ATB in combination ([1]; PMI UFR125) | MIC ATB in combination ([1]; PMI UFR126) | MIC ATB in combination ([1]; PMI UFR127)
> 128 µg/mL: MIC ([4]; strain EAE 49469 (AmpC), ATB alone, read-out: MIC)
32 µg/mL: MIC ([2]; ATB alone, strain CFR UFR253 (TEM-1, SHV-12, OXA-48), read-out: MIC) | MIC ([2]; ATB alone, strain CFR UFR254 (VEB-1b, OXA-48, qnrA), read-out: MIC) | MIC ATB in combination ([3]; CKO ROU) | MIC ATB in combination ([3]; CKO UFR150) | MIC ATB in combination ([4]; EAE UFR202)
> 256 µg/mL: MIC ([1]; strain PMI UFR120 (TEM-1, SHV-11, CTX-M-14)) | MIC ([1]; strain PMI UFR121 (TEM-1, TEM-52)) | MIC ([1]; strain PMI UFR122 (TEM-1, CTX-M-15)) | MIC ([1]; strain PMI UFR123 (CTX-M-1)) | MIC ([1]; strain PMI UFR124 (CTX-M-2)) | MIC ([1]; strain PMI UFR125 (CTX-M-71)) | MIC ([1]; strain PMI UFR126 (TEM-2, PER-1)) | MIC ([1]; strain PMI UFR127 (VEB-1)) | MIC ([1]; strain PMI UFR129 (TEM-1, VEB-6)) | MIC ([1]; strain PMI UFR237 (VEB-6)) | MIC [2] | MIC ([2]; strain CFR UFR10 (OXA-48), ATB alone, read-out: MIC) | MIC ([2]; strain CFR UFR11 (TEM-1, OXA-1, OXA-48), ATB alone, read-out: MIC) | MIC ([2]; strain CFR UFR83 (TEM-3, AmpC), ATB alone, read-out: MIC) | MIC ([2]; strain CFR UFR248 (CTX-M-15), ATB alone, read-out: MIC) | MIC ([2]; strain CFR UFR249 (TEM-1, CTX-M-15), ATB alone, read-out: MIC) | MIC ([2]; strain CFR UFR250 (TEM-1, SHV-28, CTX-M-15), ATB alone, read-out: MIC) | MIC ([3]; strain CKO UFR149 (OXA-48)) | MIC [4] | MIC ([4]; strain EAE 200261 (TEM-x, AmpC), ATB alone, read-out: MIC) | MIC ([4]; strain EAE UFR201 (TEM-1, SHV-12, CTX-M-15), ATB alone, read-out: MIC) | MIC ([4]; strain EAE UFR202 (TEM-24), ATB alone, read-out: MIC) | MIC ([4]; strain EAE UFR213 (TEM-24), ATB alone, read-out: MIC)
>128 µg/mL: MIC ATB in combination ([2]; CFR UFR11, AF1 @ 4 μg/mL) | MIC ATB in combination ([2]; CFR UFR83, AF1 @ 4 μg/mL)
64 µg/mL: MIC ([3]; strain CKO ROU (TEM-1, SHV-12, CTX-M-15, OXA-1, OXA-48), read-out: MIC) | MIC ([3]; strain CKO UFR150 (TEM-1, OXA-48), read-out: MIC) | MIC ATB in combination ([4]; EAE 49469) | MIC ATB in combination ([4]; EAE 200261)
4 µg/mL: MIC ATB in combination ([1]; PMI UFR82) | MIC ATB in combination ([1]; PMI UFR129) | MIC ATB in combination ([1]; PMI UFR130) | MIC ATB in combination ([1]; PMI UFR237) | MIC ATB in combination ([2]; strain CFR UFR253, antibacterial combined with AF1 @ 4 μg/mL) | MIC ATB in combination ([5]; ECO 4133) | MIC ATB in combination ([5]; ECO 5302) | MIC ATB in combination ([5]; ECO 131119) | MIC ATB in combination ([5]; ECO 180070) | MIC ATB in combination ([5]; ECO 190314) | MIC ATB in combination ([5]; ECO 190317) | MIC ATB in combination ([5]; ECO 200344) | MIC ATB in combination ([5]; ECO 260096) | MIC ATB in combination ([5]; ECO 260304)
128 µg/mL: MIC ATB in combination ([3]; CKO UFR149)

Source: patent US20200017496A1 (priority 2017, published 2020)
